# In patent US9169219B2, “Herbicidally active 4-nitro-substituted N-(tetrazol-5-yl)-, N-(triazol-5-yl)-, and N-(1,3,4-0XADIAZOL-2-yl)aryl carboxylic acid amides” (BAYER INTELLECTUAL PROPERTY GMBH, priority 2012, dated 2015):
# Tests used:
# Type in all cases: in vivo
# maize = experiment: Pre-emergence test, damage to crop plants; conditions: 320 g/ha, visual assessment after 3 weeks
# Abutilon theophrasti = experiment: Post-emergence herbicidal action against weed plants; conditions: 504 h, one-leaf stage, visual assessment after about 3 weeks vs untreated controls (100% = plants have died)
# Procedure: (§1) 2. Post-emergence Herbicidal Action Against Weed Plants Seeds of monocotyledonous and dicotyledonous weed and crop plants are placed in sandy loam in wood-fiber pots, covered with soil and cultivated in a greenhouse under good growth conditions. 2 to 3 weeks after sowing, the test plants are treated at the one-leaf stage. The inventive compounds formulated in the form of wettable powders (WP) or as emulsion concentrates (EC) are then sprayed onto the green parts of the plants as an aqueous suspension or emulsion at a water application rate of 600 to 800 I/ha (converted) with addition of 0.2% wetting agent. After the test plants have been left to stand in the greenhouse under optimal growth conditions for about 3 weeks, the action of the formulations is assessed visually in comparison to untreated controls (herbicidal action in percent (%): 100% activity=the plants have died, 0% activity=like control plants).
# Stellaria media = experiment: as above; conditions: 504 h, one-leaf stage, visual assessment after about 3 weeks vs untreated controls (100% = plants have died)
# Procedure: as §1
smiles,measurement,setting,value
COCCCOc1c([N+](=O)[O-])ccc(C(=O)Nc2nnnn2C)c1Cl [1-62],damage in maize,maize,no damage whatsoever
CCn1nnnc1NC(=O)c1ccc([N+](=O)[O-])c(OCC2COCCO2)c1Br (stereo not shown) [2-34],pest or weed control at 80 g/ha,Abutilon theophrasti,≥ 80%
same,pest or weed control at 80 g/ha,Stellaria media,≥ 80%
CCn1nnnc1NC(=O)c1ccc([N+](=O)[O-])c(OCCOC)c1Cl [2-61],damage in maize,maize,no damage whatsoever
COCCOc1c([N+](=O)[O-])ccc(C(=O)Nc2nnnn2C)c1Cl [1-61],damage in maize,maize,no damage whatsoever
COc1c([N+](=O)[O-])ccc(C(=O)Nc2nnnn2C)c1Cl [1-44],pest or weed control at 80 g/ha,Abutilon theophrasti,≥ 80%
same,pest or weed control at 80 g/ha,Stellaria media,≥ 80%
Cn1nnnc1NC(=O)c1ccc([N+](=O)[O-])c(OCC2COCCO2)c1Cl (stereo not shown) [1-77],damage in maize,maize,no damage whatsoever
same,pest or weed control at 80 g/ha,Abutilon theophrasti,≥ 80%
same,pest or weed control at 80 g/ha,Stellaria media,≥ 80%
CCn1nnnc1NC(=O)c1ccc([N+](=O)[O-])c(OC)c1Br [2-1],pest or weed control at 80 g/ha,Abutilon theophrasti,≥ 80%
same,pest or weed control at 80 g/ha,Stellaria media,≥ 80%
Cn1nnnc1NC(=O)c1ccc([N+](=O)[O-])c(OCC2COCCO2)c1Br (stereo not shown) [1-34],damage in maize,maize,no damage whatsoever
same,pest or weed control at 80 g/ha,Abutilon theophrasti,≥ 80%
same,pest or weed control at 80 g/ha,Stellaria media,≥ 80%
CCn1nnnc1NC(=O)c1ccc([N+](=O)[O-])c(OCCOC)c1C [2-104],damage in maize,maize,no damage whatsoever
Cn1nnnc1NC(=O)c1ccc([N+](=O)[O-])c(OCC2OCCO2)c1Cl [1-78],damage in maize,maize,no damage whatsoever
same,pest or weed control at 80 g/ha,Abutilon theophrasti,≥ 80%
same,pest or weed control at 80 g/ha,Stellaria media,≥ 80%
CCn1nnnc1NC(=O)c1ccc([N+](=O)[O-])c(OCCCOC)c1Cl [2-62],damage in maize,maize,no damage whatsoever
CCn1nnnc1NC(=O)c1ccc([N+](=O)[O-])c(OCC2COCCO2)c1C (stereo not shown) [2-120],pest or weed control at 80 g/ha,Abutilon theophrasti,≥ 80%
same,pest or weed control at 80 g/ha,Stellaria media,≥ 80%
CCn1nnnc1NC(=O)c1ccc([N+](=O)[O-])c(OCC(=O)N(C)C)c1C [2-123],damage in maize,maize,no damage whatsoever
CCn1nnnc1NC(=O)c1ccc([N+](=O)[O-])c(OC)c1Cl [2-44],pest or weed control at 80 g/ha,Abutilon theophrasti,≥ 80%
same,pest or weed control at 80 g/ha,Stellaria media,≥ 80%
CCn1nnnc1NC(=O)c1ccc([N+](=O)[O-])c(OCCCOC)c1Br [2-19],damage in maize,maize,no damage whatsoever
CCOCCOc1c([N+](=O)[O-])ccc(C(=O)Nc2nnnn2C)c1Br [1-20],damage in maize,maize,no damage whatsoever
"COc1c([N+](=O)[O-])ccc(C(=O)Nc2nnnn2C)c1Br [1-1, 2-bromo-3-methoxy-N-(1-methyl-1H-tetrazol-5-yl)-4-nitrobenzamide]",pest or weed control at 80 g/ha,Abutilon theophrasti,≥ 80%
same,pest or weed control at 80 g/ha,Stellaria media,≥ 80%
Cc1c(C(=O)Nc2nnnn2C)ccc([N+](=O)[O-])c1OCC1COCCO1 (stereo not shown) [1-119],pest or weed control at 80 g/ha,Abutilon theophrasti,≥ 80%
same,pest or weed control at 80 g/ha,Stellaria media,≥ 80%
